Measurements taken from PubChem BioAssay (NCI).
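Five compound concentrations were applied to cells in 96-well plates for 48 hours; endpoints were derived by simple linear interpolation of the resulting dose-response curve. Definition used: TGI = concentration required for complete inhibition of growth.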

Key:
Test in all cases: NCI-60 cell line screen, 48 h
CAKI-1 renal = test system: CAKI-1 renal
HS 578T breast = test system: HS 578T breast
MOLT-4 leukemia = test system: MOLT-4 leukemia
NCI-H23 lung = test system: NCI-H23 lung
NCI/ADR-RES ovarian = test system: NCI/ADR-RES ovarian
OVCAR-8 ovarian = test system: OVCAR-8 ovarian
SF-539 CNS = test system: SF-539 CNS
SK-MEL-28 melanoma = test system: SK-MEL-28 melanoma
SNB-75 CNS = test system: SNB-75 CNS
SK-MEL-2 melanoma = test system: SK-MEL-2 melanoma

Compound | TGI (CAKI-1 renal) [µM] | TGI (HS 578T breast) [µM] | TGI (MOLT-4 leukemia) [µM] | TGI (NCI-H23 lung) [µM] | TGI (NCI/ADR-RES ovarian) [µM] | TGI (OVCAR-8 ovarian) [µM] | TGI (SF-539 CNS) [µM] | TGI (SK-MEL-28 melanoma) [µM] | TGI (SNB-75 CNS) [µM] | TGI (SK-MEL-2 melanoma) [µM]
CC(=O)OCC1OC(c2nnc(C)o2)=CC(OC(C)=O)C1OC(C)=O (stereo unspecified) | > 100 | > 100 | > 100 | > 100 | > 100 | > 100 | > 100 | > 100 | > 100 | –
Cc1c(F)c(N)c2c(=O)cc(-c3ccc(NC(=O)C(N)CCCN=C(N)N)c(F)c3)oc2c1F (stereo unspecified) | 3.32 | 71.9 | > 100 | > 73.8 | > 100 | > 82.8 | 40.7 | 63.6 | – | 60
O=C(O)c1ccc(C2C3C=CC(C3)C2[N+](=O)[O-])cc1 (stereo unspecified) | > 100 | – | > 100 | > 100 | – | > 100 | > 100 | > 100 | > 100 | > 100
CC(C)(C)OC(=O)NCC(=O)N1CCCN(C(=O)CNC(=O)OC(C)(C)C)CC1 | > 100 | > 100 | > 100 | > 100 | > 100 | > 100 | – | > 100 | > 100 | > 100
C/C(N=Nc1nc2ccccc2o1)=C1/C=CC=CN1O | 29 | > 100 | 6.3 | > 100 | 89.1 | > 100 | 62 | > 100 | – | > 100
Nc1nc(SCCC/C=C/I)nc2c1ncn2C1OC(CO)C(O)C1O (stereo unspecified) | > 202 | – | > 202 | > 202 | – | > 202 | > 202 | > 202 | > 202 | > 202
NC(=O)CS(=O)CC(N)C(=O)O (stereo unspecified) | > 100 | > 100 | > 100 | > 100 | > 100 | > 100 | – | > 100 | > 100 | > 100
COc1cc(-c2nc3nc(N4CCN(C)CC4)ccc3[nH]2)c(OC)c2[nH]c(COC(C)=O)nc12 | > 100 | > 100 | – | > 100 | > 100 | > 100 | 35.4 | > 100 | > 100 | 47.4
OCC(O)C(O)C(O)C(/C=N\Nc1ncnc2ccc(Br)cc12)=N/Nc1ncnc2ccc(Br)cc12 (stereo unspecified) | > 100 | > 100 | > 100 | – | – | > 100 | > 100 | > 100 | > 100 | > 100
C/C=C\C(CC(=O)NCCC1CN(C(=O)c2ccccc2)c2ccccc21)CC(=O)OC (stereo unspecified) | > 100 | > 100 | > 100 | > 100 | > 100 | > 100 | – | > 100 | > 100 | > 100
COc1ccc2c(c1)-c1nn(CCN(C)C)c3ccc(C(=O)NCCCN(C)CCCNC(=O)c4ccc5c6c(nn5CCN(C)C)-c5cc(OC)ccc5Nc46)c(c13)N2 | 8.12 | – | 0.0653 | 0.384 | > 62.9 | 0.977 | 1.56 | 0.48 | 0.393 | 0.25
